Data from patent publication US11090285B2, “Treatment of circadian rhythm disorders” (Vanda Pharmaceuticals Inc., priority 2013, dated 2021).

How the values were obtained:
Assay type in all cases: in vivo, human
[1] = system: blind individuals with Non-24; test: RESET Study, randomized withdrawal, maintenance of effect
Procedure: Patients were treated with tasimelteon for at least twelve weeks during an open-label run-in phase during the SET Study. Patients who responded to tasimelteon treatment during the run-in phase were then randomized to receive either placebo or tasimelteon (20 mg/day) for 2 months.
The primary endpoint of the RESET Study was the maintenance of effect as measured by entrainment of the melatonin (aMT6s) rhythm.
The RESET study also assessed a number of secondary endpoints including maintenance of entrainment of the cortisol rhythm and a range of sleep and wake parameters including LQ-nTST (total nighttime sleep in the worst 25% of nights), UQ-dTSD (total daytime sleep duration in the worst 25% of days) and MoST (midpoint of sleep timing from both nighttime and daytime sleep).

patients with Non-24 = test: SET Study, Phase III randomized, double-masked, placebo-controlled
Procedure: Specifically, patients were orally administered 20 mg tasimelteon per day for at least 12 weeks prior to re-estimating tau. Patients were selected for randomization or open label based on baseline tau estimates. Drug was administered at about 1 hour prior to target sleep time, as determined by patients based on a 9 hour nighttime sleep period.
The SET study was an 84 patient randomized, double-masked, placebo-controlled study in patients with Non-24. The primary endpoints for this study were Entrainment of the melatonin (aMT6s) rhythm to the 24-hour clock and Clinical Response as measured by Entrainment plus a score of greater than or equal to 3 on the following N24CRS:
The SET study also assessed a number of secondary endpoints including Entrainment of cortisol rhythm and a broad range of clinical sleep and wake parameters. These parameters included improvement in the total nighttime sleep in the worst 25% of nights (LQ-nTST), decrease in the total daytime sleep duration in the worst 25% of days (UQ-dTSD) and midpoint of sleep timing (MoST) which is derived from a combination of the sleep reported for both nighttime and daytime. CGI-C is a seven-point rating scale of global functioning with lower scores indicating larger improvements.

[2] = Tasimelteon exposure with Rifampin (CYP3A4 inducer); settings: single 20 mg dose after 11 days of 600 mg Rifampin
Procedure: For example, when a single 20 mg dose of tasimelteon was administered after 11 days of the administration of 600 mg of Rifampin, tasimelteon mean exposure was reduced by approximately 89%. Therefore, in cases where an individual is co-administered a CYP3A4 inducer, the dose of tasimelteon administered may be greater than if administered alone or in the absence of a CYP3A4 inducer.

[3] = RESET, higher number indicates improvement
[4] = 20 mg/day, SET secondary endpoint
[5] = 20 mg/day, sensitivity analysis

Structure (SMILES): CCC(=O)NC[C@@H]1C[C@H]1c1cccc2c1CCO2 (relative stereo) [Tasimelteon, trans-N-[[2-(2,3-dihydrobenzofuran-4-yl)cycloprop-1yl]methyl]propanamide]
- maintenance of entrainment (cortisol) ([1]; 20 mg/day, RESET): 80.0%
- Maintenance of entrainment (aMT6s) ([1]; 20 mg/day, RESET primary endpoint): 90.0%
- LQ-nTST (LS mean minutes) [1, 3]: -6.6 min
- MoST (LS mean minutes) [1, 3]: 19.8 min
- UQ-dTSD (LS mean minutes) ([1]; RESET, lower number indicates improvement): -9.6 min
- LQ-nTST (LS mean minutes), Difference ([1]; tasimelteon vs placebo): 67.2 min
- MoST (LS mean minutes), Difference ([1]; tasimelteon vs placebo): 36.0 min
- UQ-dTSD (LS mean minutes), Difference ([1]; tasimelteon vs placebo): -59.4 min
- maintenance of entrainment (cortisol), Difference ([1]; tasimelteon vs placebo): 60.0%
- Entrainment (aMT6s) (patients with Non-24; 20 mg/day oral, SET primary endpoint): 20.0%
- LQ-nTST (LS mean minutes) (patients with Non-24; 20 mg/day, SET): 57.0 min
- MoST (LS mean minutes) (patients with Non-24; 20 mg/day, SET): 34.8 min
- Clinical Response (Entrainment + N24CRS >=3) (patients with Non-24; 20 mg/day, SET primary endpoint): 23.7%
- Entrainment (cortisol) (patients with Non-24; [4]): 17.5%
- N24CRS (LS mean minutes) (patients with Non-24; [4]): 1.77 min
- UQ-dTSD (LS mean minutes) (patients with Non-24; 20 mg/day, SET, smaller numbers indicate improvement): -46.2 min
- Clinical Response (Entrainment + N24CRS >=2) (patients with Non-24; [5]): 28.9%
- N24CRS >=2 (patients with Non-24; [5]): 57.9%
- N24CRS >=3 (patients with Non-24; [5]): 28.9%
- CGI-C (LS mean minutes) (patients with Non-24; 20 mg/day, smaller numbers indicate improvement): 2.6 min
- safety and tolerability (patients with Non-24; SET study): safe and well tolerated
- percentage of entrained patients (patients with Non-24; on drug at least two circadian cycles, not on beta blockers, tau<24.7 hours): approximately 85%
- LQ-nTST and UQ-dTSD >=90 min (patients with Non-24; only subjects with significant sleep and nap problems at baseline): 23.8%
- LQ-nTST and UQ-dTSD >=45 min (patients with Non-24; sensitivity analysis): 31.6%
- reduction of tasimelteon mean exposure [2]: approximately 89%
